Consider 24 compounds from US9434711B2 (Janssen Pharmaceutica, NV, priority 2007, dated 2016).

The target of the assay is canine TRPM8 (Canis lupus familiaris, UniProt Q1A7N1). The experiment in a line: In Vitro Canine TRPM8 Functional Assay (Ca2+ fluorescence, icilin activation). It is filed as cell-based. The following applies: for pIC50: HEK293 cells stably expressing canine TRPM8, icilin activation, eight-point dose-response, read-out: IC50; for inhibition at 0.2 µM / % Inh @ 0.2 (μM): compound at 0.2 μM; for inhibition at 0.2 µM / % Inh @ 0.2 (μM) / inhibition at 0.5 µM: canine TRPM8, icilin activation; for inhibition at 0.2 µM: read-out: % Inh @ 0.2; for inhibition at 0.5 µM: compound at 0.5 μM, read-out: % Inh @ 0.5. An outline of the steps: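 Readout is the intracellular Ca2+ fluorescence change, measured by FLIPR or FDSS, in HEK293 cells stably expressing canine TRPM8. Potency (EC50 or IC50) is fitted from eight concentrations averaged over quadruplicate wells.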

pIC50: −log10 of the molar value.

Chain of canine TRPM8 (Q1A7N1 1-1104): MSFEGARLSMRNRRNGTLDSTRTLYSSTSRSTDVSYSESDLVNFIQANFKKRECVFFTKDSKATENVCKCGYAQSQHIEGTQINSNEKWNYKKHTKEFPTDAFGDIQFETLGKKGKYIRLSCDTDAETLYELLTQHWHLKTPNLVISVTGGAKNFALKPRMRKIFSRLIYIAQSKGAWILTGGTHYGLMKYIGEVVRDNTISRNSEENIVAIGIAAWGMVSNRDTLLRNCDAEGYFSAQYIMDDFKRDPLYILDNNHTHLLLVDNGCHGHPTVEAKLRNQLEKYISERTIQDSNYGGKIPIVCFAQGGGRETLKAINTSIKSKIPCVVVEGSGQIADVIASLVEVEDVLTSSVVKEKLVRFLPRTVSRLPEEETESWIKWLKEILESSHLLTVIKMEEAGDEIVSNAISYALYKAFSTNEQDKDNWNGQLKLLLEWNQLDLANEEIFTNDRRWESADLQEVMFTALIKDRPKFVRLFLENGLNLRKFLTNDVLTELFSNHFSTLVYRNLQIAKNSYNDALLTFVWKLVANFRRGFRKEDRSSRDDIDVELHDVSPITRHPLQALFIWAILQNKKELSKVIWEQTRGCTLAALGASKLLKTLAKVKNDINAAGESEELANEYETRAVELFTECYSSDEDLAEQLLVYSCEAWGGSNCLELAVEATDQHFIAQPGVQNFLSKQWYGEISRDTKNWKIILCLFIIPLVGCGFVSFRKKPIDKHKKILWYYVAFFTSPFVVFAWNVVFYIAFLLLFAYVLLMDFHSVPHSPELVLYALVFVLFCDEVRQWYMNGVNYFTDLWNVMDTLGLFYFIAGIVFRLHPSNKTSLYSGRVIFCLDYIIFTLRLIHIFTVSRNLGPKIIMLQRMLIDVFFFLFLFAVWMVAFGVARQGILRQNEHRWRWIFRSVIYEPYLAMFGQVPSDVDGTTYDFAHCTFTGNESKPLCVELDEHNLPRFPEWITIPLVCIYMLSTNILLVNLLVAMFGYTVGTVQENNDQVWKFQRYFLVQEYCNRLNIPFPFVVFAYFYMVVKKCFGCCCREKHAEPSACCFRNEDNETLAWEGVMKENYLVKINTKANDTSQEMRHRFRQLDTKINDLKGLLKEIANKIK

On to `COC(=O)CCS(=O)(=O)N(CCC1CC1)c1sc2ccccc2c1C` [Compound 600, N-(2-Cyclopropyl-ethyl)-N-(3-methyl-benzo[b]thiophen-2-yl)-2-carbomethoxy-ethanesulfonamide], for which the pIC50 – broadly, the IC50 on a negative log10 scale, so that one unit is a factor of ten – was 8.05 and the inhibition at 0.2 µM was determined as 101%.
As for `COc1ccc(S(=O)(=O)N(Cc2ccc(F)c(C(F)(F)F)c2)c2sc3ccccc3c2C)c2cccnc12` [Compound 355], the pIC50 was 7.53 and the “% Inh @ 0.2 (μM)” value stood at 92%.
Take `COC(=O)[C@H](C)CN(c1sc2ccccc2c1Br)S(=O)(=O)c1ccccc1` [Compound 245, N-(3-Bromo-benzo[b]thiophen-2-yl)-N-[2(R)-methyl-2-carbomethoxy-ethyl]-benzenesulfonamide]: the inhibition at 0.2 µM came out at 102%.
Consider `COc1ccc(S(=O)(=O)N(CCCC(F)(F)F)c2sc3ccccc3c2C)c2cccnc12` [Compound 356, N-(3-Methyl-benzo[b]thiophen-2-yl)-N-(4,4,4-trifluoro-butyl)-8-methoxyquinolin-5-ylsulfonamide], for which the negative logarithm of the IC50 (pIC50) was 7.38 and the inhibition at 0.2 µM is 93%.
Consider `O=C(O)c1ccc(S(=O)(=O)N(CCCC(F)(F)F)c2sc3ccccc3c2Cl)cc1` [Compound 537, N-(3-Chloro-benzo[b]thiophen-2-yl)-N-(4,4,4-trifluoro-butyl)-4-carboxy-benzenesulfonamide], for which the negative logarithm of the IC50 (pIC50) is 8.09 and the inhibition at 0.2 µM came to 105%.
Regarding `O=S1NC(c2ccc(S(=O)(=O)N(CCC3CC3)c3sc4ccccc4c3Cl)cc2)=NO1` (centres unmarked) [Compound 625, N-(3-Chloro-benzo[b]thiophen-2-yl)-N-(cyclopropyl-ethyl)-4-(3H-[1,2,3,5]oxathiadiazole-2-oxide)-benzenesulfonamide], the pIC50 is 7.69 and the “% Inh @ 0.2 (μM)” value stood at 103%.
For the compound `CCCCN(c1cc2ccccc2s1)S(=O)(=O)c1ccc(C(=O)O)cc1` [Compound 556, N-(Benzo[b]thiophen-2-yl)-N-(butyl)-4-carboxy-benzenesulfonamide], the negative logarithm of the IC50 (pIC50) is 7.32 and the inhibition at 0.2 µM is 99.3%.
On to `CCCCN(c1sc2ccccc2c1C(C)=O)S(=O)(=O)c1ccc(Br)cc1` [Compound 503, N-(3-Acetyl-benzo[b]thiophen-2-yl)-N-(butyl)-4-bromo-benzenesulfonamide], for which the pIC50 is 7.33 and the inhibition at 0.2 µM is 96%.
With `Cc1c(N(Cc2ccc3c(c2)OCO3)S(=O)(=O)c2ccc(C(=O)O)cc2)sc2ccccc12` [Compound 523, N-(3-Methyl-benzo[b]thiophen-2-yl)-N—(C-benzo[1,3]dioxol-5-yl-methy)-4-carboxy-benzenesulfonamide], the pIC50 is 8.70 and the “% Inh @ 0.2 (μM)” value worked out at 101%.
On to `CCCCN(c1cc2ccccc2s1)S(=O)(=O)c1ccc(N2CCOCC2)cc1` [Compound 446, N-Benzo[b]thiophen-2-yl-N-(butyl)-4-morpholin-4-yl-benzenesulfonamide], for which the negative-log IC50 (pIC50) was 7.02 and the inhibition at 0.2 µM was determined as 82%.
With `Cc1c(N(Cc2ccc(F)c(C(F)(F)F)c2)S(=O)(=O)c2ccc3c(c2)CC(N)C3)sc2ccccc12` (centres unmarked) [Compound 747, 2-Amino-indan-N-(3-methyl-benzo[b]thiophen-2-yl)-N-(4-fluoro-3-trifluoromethyl-benzyl)-N-sulfonamide], the “% Inh @ 0.2 (μM)” value is 48%.
Consider `CCS(=O)(=O)N(CCOC(C)(C)C)c1sc2ccccc2c1C(C)=O` [Compound 123, N-(3-Acetyl-benzo[b]thiophen-2-yl)-N-(2-tert-butoxy-ethyl)-ethanesulfonamide], for which the inhibition at 0.2 µM stood at 60%.
Take `CCS(=O)(=O)N(Cc1ccc(F)c(C(F)(F)F)c1)c1sc2ccccc2c1C(C)O` (centres unmarked) [Compound 220, N-(4-Fluoro-3-trifluoromethyl-benzyl)-N-[3-(1-hydroxy-ethyl)-benzo[b]thiophen-2-yl]-ethanesulfonamide]: the pIC50 was 8.92, the inhibition at 0.2 µM worked out at 98% and the inhibition at 0.5 µM was found to be 99%.
For the compound `CCCCN(c1sc2ccccc2c1NC(C)=O)S(=O)(=O)c1ccc(C(=O)OC)cc1` [Compound 500, N-(3-Acetylamino-benzo[b]thiophen-2-yl)-N-(butyl)-4-carbomethoxy-benzenesulfonamide], the inhibition at 0.2 µM worked out at 15%.
With `CCN(c1sc2ccccc2c1C)S(=O)(=O)c1ccc(C(=O)OC)cc1` [Compound 402, N-(3-Methyl-benzo[b]thiophen-2-yl)-N-(ethyl)-4-carbomethoxy-benzenesulfonamide], the inhibition at 0.2 µM turned out to be 38%.
Regarding `O=S(=O)(c1ccccc1)N(C[C@@H](O)CO)c1sc2ccccc2c1Br` [Compound 235, (R)—N-(3-Bromo-benzo[b]thiophen-2-yl)-N-(2,3-dihydroxy-propyl)-benzenesulfonamide], the inhibition at 0.5 µM worked out at 51%.
`O=S(=O)(c1ccccc1)N(Cc1ccc(OC(F)(F)F)cc1)c1sc2ccccc2c1C(F)(F)F` [Compound 325, N-(3-Trifluoromethyl-benzo[b]thiophen-2-yl)-N-(4-trifluoromethoxy-benzyl)-benzenesulfonamide]: the negative-log IC50 (pIC50) is 8.30 and the inhibition at 0.2 µM came out at 102%.
Turning to `Cc1c(N(CCCC(F)(F)F)S(=O)(=O)c2ccc(C(=O)O)cc2)sc2cc(F)ccc12` [Compound 426, N-(6-Fluoro-3-methyl-benzo[b]thiophen-2-yl)-N-(4,4,4-trifluoro-butyl)-4-carboxy-benzenesulfonamide], the negative logarithm of the IC50 (pIC50) was 7.52 and the inhibition at 0.2 µM was determined as 95%.
For `O=Cc1c(N(Cc2ccc(F)c(F)c2)S(=O)(=O)c2ccccc2)sc2ccccc12` [Compound 206, N-(3,4-Difluoro-benzyl)-N-(3-formyl-benzo[b]thiophen-2-yl)-benzenesulfonamide], the pIC50 was 7.89 and the inhibition at 0.2 µM worked out at 98%.
For `O=C(O)c1ccc(S(=O)(=O)N(CCCCC(F)(F)F)c2sc3ccccc3c2Cl)cc1` [Compound 538, N-(3-Chloro-benzo[b]thiophen-2-yl)-N-(5,5,5-trifluoro-pentyl)-4-carboxy-benzenesulfonamide] the same measures were 8.31 and 105%.
With `Cc1c(N(Cc2ccc(F)c(C(F)(F)F)c2)S(=O)(=O)CCC(C)(C)O)sc2ccccc12` [Compound 725, N-(4-Fluoro-3-trifluoromethyl-benzyl)-N-(3-methyl-benzo[b]thiophen-2-yl)-3-hydroxy-3-methyl-butane-1-sulfonamide], the pIC50 was 8.11 and the inhibition at 0.2 µM came out at 102%.
As for “N-(3-Methyl-benzo[b]thiophen-2-yl)-N-(5,5,5-trifluoro-pentyl)-4-thiomorpholin-4-yl-benzenesulfonamide [Compound 749]”, the “% Inh @ 0.2 (μM)” value came out at 64%.
`CCCCCCN(c1sc2ccccc2c1Br)S(=O)(=O)c1ccc(C(=O)O)cc1` [Compound 393, N-(3-Bromo-benzo[b]thiophen-2-yl)-N-(hexyl)-4-carboxy-benzenesulfonamide]: the pIC50 was 8.30 and the inhibition at 0.2 µM stood at 95%.
`O=[N+]([O-])c1cccc(CN(c2sc3ccccc3c2Br)S(=O)(=O)c2ccccc2)c1` [Compound 167, N-(3-Bromo-benzo[b]thiophen-2-yl)-N-(3-nitro-benzyl)-benzenesulfonamide]: the inhibition at 0.5 µM was determined as 101%.
